Measurements taken from ChEMBL document CHEMBL5390220, “SAR study of niclosamide derivatives for neuroprotective function in SH-SY5Y neuroblastoma” (Bioorg Med Chem Lett, 2023).
Calls of active or inactive are those of the source. The rule behind the calls is not given here.

Experiments:
Assay type in all cases: functional, cell-based
SH-SY5Y [1] = experiment: Neuroprotective activity against human SH-SY5Y cells assessed as reduction in cleaved PARP level incubated for 24 hrs in presence of MG132 by Western blot analysis
SH-SY5Y [2] = experiment: Neuroprotective activity against human SH-SY5Y cells assessed as reduction in protein ubiquitination level incubated for 24 hrs in presence of MG132 by Western blot analysis
SH-SY5Y [3] = experiment: Neuroprotective activity against human SH-SY5Y cells assessed as inhibition of p53 expression incubated for 24 hrs in presence of MG132 by Western blot analysis
SH-SY5Y [4] = experiment: Neuroprotective activity against human SH-SY5Y cells assessed as inhibition of CHOP expression incubated for 24 hrs in presence of MG132 by Western blot analysis
SH-SY5Y [5] = experiment: Neuroprotective activity against human SH-SY5Y cells assessed as reduction in cyclin D expression incubated for 24 hrs in presence of MG132 by Western blot analysis

## O=C(Nc1ccc([N+](=O)[O-])cc1Cl)c1cc(Cl)ccc1O
SH-SY5Y [1]
  Activity: Active
SH-SY5Y [2]
  Activity: Active
SH-SY5Y [3]
  inhibition: Active
SH-SY5Y [4]
  inhibition: Active

## O=C(Nc1ccc([N+](=O)[O-])cc1Cl)c1ccccc1
SH-SY5Y [2]
  Activity: inactive

## O=C(Nc1ccc([N+](=O)[O-])cc1)c1cc(Cl)ccc1O
SH-SY5Y [1]
  Activity: Active
SH-SY5Y [2]
  Activity: Active
SH-SY5Y [5]
  Activity: Active
SH-SY5Y [3]
  inhibition: Active
SH-SY5Y [4]
  inhibition: Active

## CC(=O)Oc1ccc(Cl)cc1C(=O)Nc1ccc([N+](=O)[O-])cc1Cl
SH-SY5Y [2]
  Activity: Active
SH-SY5Y [5]
  Activity: Active
SH-SY5Y [3]
  inhibition: Active
SH-SY5Y [4]
  inhibition: Active

## Nc1ccc(NC(=O)c2ccccc2O)cc1
SH-SY5Y [3]
  inhibition: inactive

## [N-]=[N+]=Nc1ccc(NC(=O)c2cc(Cl)ccc2O)c(Cl)c1
SH-SY5Y [1]
  Activity: Active
SH-SY5Y [2]
  Activity: Active
SH-SY5Y [5]
  Activity: Active
SH-SY5Y [3]
  inhibition: Active
SH-SY5Y [4]
  inhibition: Active

## O=C(Nc1ccccc1)c1cc(Cl)ccc1O
SH-SY5Y [3]
  inhibition: inactive

## O=C(Nc1ccc(C(F)(F)F)cc1Cl)c1cc(Cl)ccc1O
SH-SY5Y [1]
  Activity: Active
SH-SY5Y [2]
  Activity: Active
SH-SY5Y [5]
  Activity: Active
SH-SY5Y [3]
  inhibition: Active
SH-SY5Y [4]
  inhibition: Active

## O=C(Nc1ccc([N+](=O)[O-])cc1Cl)c1ccccc1O
SH-SY5Y [5]
  Activity: Active
SH-SY5Y [3]
  inhibition: Active
SH-SY5Y [4]
  inhibition: Active

## CC(=O)Nc1ccc(NC(=O)c2cc(Cl)ccc2OC(C)=O)c(Cl)c1
SH-SY5Y [1]
  Activity: inactive
SH-SY5Y [2]
  Activity: inactive
SH-SY5Y [5]
  Activity: inactive
SH-SY5Y [3]
  inhibition: inactive
SH-SY5Y [4]
  inhibition: inactive
